From article PMC10931745 (International Journal of Molecular Sciences, 2024)

How the values were obtained:
[1] = tested on: Staphylococcus aureus (ATCC 23235); assay: MIC/MBC broth dilution; format: cell-based
Experimental: (§1) The bacterial strains used for MIC and MBC value determinations expressed as µg/mL by the broth dilution method, according to CLSI guidelines, were the following:
(§2) -3 Gram-positive: Enterococcus faecalis (ATCC® 19433^TM), Staphylococcus aureus (ATCC® 23235^TM), and Staphylococcus epidermidis (ATCC® 14990™).
(§3) Increasing concentrations of the complexes (50, 70, 100, 150, and 200 µg/mL) were incubated with bacteria plated in 96-well microplates at 37 °C overnight as already reported, and then bacterial growth was checked at a wavelength of 600 nm using a Multiskan spectrophotometer (model Multiskan Ex Microplate; Thermo Scientific, Nyon, Switzerland). MIC or MBC values were obtained by comparing cell density with a positive control (bacterial cells grown in LB medium were added with only the vehicle, DMSO). The results were representative of three independent experiments performed in triplicate. Ampicillin, Gentamicin, and Cephalosporin (Sigma Aldrich A9393) were used as the control for strain sensitivity.

[2] = tested on: Staphylococcus epidermidis (ATCC 14990); assay: MIC/MBC broth dilution; format: cell-based
Experimental: as §1, §2, §3

[3] = tested on: Enterococcus faecalis (ATCC 19433); assay: MIC/MBC broth dilution; format: cell-based
Experimental: as §1, §2, §3

[4] = tested on: NF-κB localization in MDA-MB-231 cells; assay: Immunofluorescence, NF-κB localization; format: cell-based, human; conditions: 15 µM
Experimental: After a PBS wash, cells were fixed using cold methanol (15 min at −20 °C) and incubated overnight at 4 °C with the primary antibodies raised against NF-κB, iNOS, TNF-α, and COX-1 and 2 (Santa Cruz Biotechnology Inc., Santa Cruz, CA, USA) diluted in BSA 2%, as previously described. […] DAPI (Sigma Aldrich, Milan, Italy) 0.2 µg/mL was added for 10 min for nuclei counterstaining. A fluorescence microscope (Leica DM 6000) was used for visualizing images, and LAS-X software 3.5.7.23225 was used for acquisition and processing.

[5] = tested on: MDA-MB-231 cells; assay: TUNEL assay (DNA damage/apoptosis); format: cell-based, human; conditions: 30 µM, 24 h
Experimental: The terminal deoxynucleotidyl transferase dUTP nick end labeling (TUNEL) assay was performed to detect cell apoptosis, following the manufacturer’s protocols (CF™488A TUNEL Assay Apoptosis Detection Kit, Biotium, Hayward, CA, USA), with some modifications, as previously indicated. Nuclei staining was performed using DAPI solution (0.2 µg/mL, Sigma Aldrich, Milan, Italy). A fluorescence microscope (Leica DM 6000) was used for the cell examinations at 20× magnification. LAS-X software 3.5.7.23225 was employed for the acquisition and processing of the images, which were representative of three independent experiments.

[6] = tested on: MCF-7; assay: MTT cell viability assay; format: cell-based, human; conditions: 72 h
Experimental: The cell lines used were purchased from American Type Culture Collection (ATCC, Manassas, VA, USA). Human breast cancer cells MCF-7 and MDA-MB-231, human mammary epithelial cell line MCF-10A, and mouse BALB/3T3 embryonic fibroblasts were cultured as already described by some of us. The murine macrophage cell line RAW 264.7 was maintained in Dulbecco’s Modified Eagle’s Medium (DMEM) high glucose (4.5 g/L) supplemented with 10% Fetal Bovine Serum (FBS), 1% L-glutamine, and 100 units/mL of penicillin/streptomycin. The cell cultures were maintained at the temperature of 37 °C in a humidified atmosphere containing 5% CO2.
The 3-(4,5-dimethylthiazol-2-yl)-2,5-diphenyl-2H-tetrazolium bromide (MTT) assay (Sigma Aldrich (St. Louis, MO, USA)) was carried out to study the in vitro anticancer activities of the complexes, following the previously reported protocol. The cells were incubated for 72 h with different concentrations of the tested compounds (0.1, 1, 10, 25, 50, 100, and 500 µM) and the IC50 values were calculated from the percent (%) of control using the software GraphPad Prism 9 (GraphPad Software, La Jolla, CA, USA).

[7] = tested on: NO production in LPS-stimulated RAW 264.7 macrophages; assay: Griess assay, NO production; format: cell-based, murine; conditions: 25 µM, LPS 1 µg/mL, 24 h
Experimental: The Griess assay was performed using RAW 264.7 murine macrophages to study the anti-inflammatory activity in terms of NO production. RAW 264.7 cells were plated in the 48 multi-wells and, after 24 h, treated with the tested molecules (25 µM) and the lipopolysaccharide (LPS, Sigma Aldrich, Milan, Italy) at a final concentration of 1 µg/mL. LPS is able to induce inflammation by stimulating NO production in immune system cells such as macrophages. After 24 h, the cell medium Griess reagent (Sigma Aldrich, Milan, Italy) was mixed in with a ratio of 1:1. The Griess reagent allowed for the quantification of NO released by macrophages in the treatment medium. The mixture was left for 30 min under agitation and, subsequently, the absorbance at 540 nm was measured using a multiplate reader. The obtained absorbance allowed us to calculate the NO production % compared to the absorbance obtained for the positive control, in which the cells were treated with LPS.

[8] = tested on: Salmonella typhimurium (ATCC 14028); assay: MIC/MBC broth dilution; format: cell-based
Experimental: as §1
as §3, with “The results were representative of three independent experiments performed in triplicate.” left out

[9] = tested on: Pseudomonas aeruginosa (ATCC 15442); assay: MIC/MBC broth dilution; format: cell-based
Experimental: as §1
as §3, with “The results were representative of three independent experiments performed in triplicate.” left out

[10] = ABTS radical scavenging assay; format: biochemical
Experimental: The radical scavenging properties of the complexes on a 2,20-azino-bis(3-ethylbenzothiazoline-6-sulfonate) radical cation (ABTS^+) were evaluated as previously described.
All the complexes were used at different concentrations (5, 10, 25, 50, and 100 µg/mL) and the ABTS radical scavenging activity, measured at 730 nm using a microplate reader, was expressed as inhibition percentages (%IABTS) compared tothe control, according to the following expression:(3) IABTS (%)=ABSCTRL−ABSsample/ABSCTRL∗100 where ABSCTRL and ABSsample are the absorbance at 730 nm in the control and in the presence of samples, respectively.
IC50 values were calculated from the %IABTS using GraphPad Prism 9 software (GraphPad Inc., San Diego, CA, USA). Trolox was employed as a positive control, while caffeine and theophylline were reference compounds.

IC50 [6]	IC50 [10]	SMILES	M.B.C. S. aureus [1]	M.I.C. S. aureus [1]	M.B.C. S. epidermidis [2]	M.I.C. S. epidermidis [2]	M.B.C. E. faecalis [3]	M.I.C. E. faecalis [3]	NF-κB intracellular localization [4]	DNA damage (green nuclear fluorescence, TUNEL) [5]	Reduction in NO production [7]	M.B.C. S. typhimurium [8]	M.I.C. S. typhimurium [8]	M.B.C. P. aeruginosa [9]	M.I.C. P. aeruginosa [9]
28.7 ± 1 µM	145.4 ± 1.1 µM	CC(=O)[O][Ag-][c]1n(C)c2c(c(=O)n(C)c(=O)n2C)[n+]1C1CCCCC1O (stereo not drawn) [AgL2OAc, 1,3,7-Trimethylxanthin-9-[cyclohexan-2-ol-8-ylidene]Ag(I) Acetate]	> 150 µg/mL	100 µg/mL	> 125 µg/mL	100 µg/mL	> 200 µg/mL	150 µg/mL	prevalently located in the cytoplasm	formation of a green nuclear fluorescence	about 5.20%	> 200 µg/mL	150 µg/mL	> 125 µg/mL	100 µg/mL
73.8 ± 1.1 µM	161 ± 1 µM	Cn1c(=O)c2c(n(C)[c]([Au-][I])[n+]2CC(O)c2ccccc2)n(C)c1=O (racemic) [AuL1, 1,3,7-Trimethylxanthin-9-[(2-hydroxy-2-phenyl)ethyl-8-ylidene]Au(I) Iodide]	> 200 µg/mL	150 µg/mL	> 150 µg/mL	125 µg/mL	> 200 µg/mL	150 µg/mL	prevalently located in the cytoplasm	formation of a green nuclear fluorescence	~6.23%	> 200 µg/mL	150 µg/mL	> 125 µg/mL	100 µg/mL
